Assay results from ChEMBL document CHEMBL1142638, “Thalicosides A1-A3, minor cycloartane bisdesmosides from Thalictrum minus” (2000).

Columns and labels:
[1] = system: Candida albicans; assay: Antifungal activity against Candida albicans ATCC 90028 at 1 mg/mL after 24 hrs by spectrophotometry; type: functional
[2] = system: Staphylococcus aureus; assay: Antibacterial activity against Staphylococcus aureus ATCC 6538P at 1 mg/mL after 24 hrs by spectrophotometry; type: functional

## CC(C)=CC[C@H](O)[C@@H](C)[C@H]1[C@@H](O)C[C@@]2(C)[C@@H]3CC[C@H]4[C@](C)(CO[C@@H]5O[C@H](CO)[C@@H](O)[C@H](O)[C@H]5O)[C@@H](O[C@@H]5OC[C@H](O)[C@H](O)[C@H]5O)CC[C@@]45C[C@@]35CC[C@]12C [THALICOSIDE A2]
[1]
  Activity: 78.7%
[2]
  Activity: 45.7%
